# Measured values from PMC8811960, “A Novel 2-Carbon-Linked Dimeric Artemisinin With Potent Antileukemic Activity and Favorable Pharmacology” (Frontiers in Oncology, 2022).
# Where two headings read alike, the source gives them in different places.
# What was measured:
# [1] = Phase I microsomal stability, human liver microsomes; format: in vitro ADME
# Protocol: The metabolic stability of ART631 was assessed in human and mouse plasma and liver microsomes (LM). For phase I microsomal stability assays, analogs (10 µM in <1% acetonitrile) were incubated in PBS containing liver microsomes, with or without cofactors ([22]). Microsomal controls (without cofactors) were used to determine non-enzymatic degradation. All experiments were incubated at 37°C for 1h and performed in duplicate. Reactions were stopped with acetonitrile and analyzed as described below.
# (§1) ART631 was extracted from 25 µL plasma or microsomal solutions with 100 µL acetonitrile containing artemisinin (i.e. the natural product) as internal standard. […] Mobile phase A was ammonium acetate (2mM) containing 0.1% formic acid, and mobile phase B was acetonitrile containing 0.1% formic acid. The gradient started with mobile phase B and was held at 40% for 0.5 minutes with a flow rate of 0.4 mL/min, then increased to 100% over 1.5 minutes and held for 2.0 minutes, and finally returned back to 40% mobile phase B and allowed to equilibrate for 2.0 minutes. An AB Sciex 5500 triple quadrupole mass spectrometer operated in positive electrospray ionization mode was used for the detection of ART631. For stability studies, the ratio of ART631 to the internal standard, artemisinin, was assessed. Calibration curves for ART631 were computed using the ratio of the peak area to that of the internal standard by using a quadratic equation with a 1/x^2 weighting function over the range of 8-1585 nM with dilutions of up to 1:10 (v/v).
# [2] = Plasma pharmacokinetics after oral dosing in NRG mice; format: in vivo; conditions: mouse; for Vd/F: read-out: Vz/F
# Protocol: Mice were dosed orally with ART631 at empirically determined maximally tolerated doses (MTDs) of 75 mg/kg ART631 as a single dose alone or 15 mg/kg as a multiple dose regimen (once daily x5), either alone or in combination with SOR (30 mg/kg/d) and VEN (150 mg/kg/d), for side-by-side comparison to the ART838, SOR and VEN combination evaluated previously ([20]). ART631, SOR, and VEN were mixed in vehicle and given as a single administration. Mice (n = 3/time point) were euthanized at 0.5, 1, 1.5, 2, 3, 4, 6, 8 and 12 h after dosing. ART631 was quantified in plasma as described below. Pharmacokinetic parameters were calculated from mean concentration-time data using non-compartmental methods in Phoenix WinNonlin version 8.3 (Certara, Princeton, NJ). The maximum plasma concentration (Cmax) and time to Cmax (Tmax) were the observed values. The AUClast was calculated using the log-linear trapezoidal method. AUC was extrapolated to infinity (AUCINF) by dividing the last quantifiable concentration by the terminal disposition rate constant (λz). The λz was determined from at least 3 points on the slope of the terminal phase of the concentration-time profile. The terminal half-life (T1/2) was determined by dividing 0.693 by λz. Apparent clearance (Cl/F) was calculated by dividing the dose administered by AUCINF. Apparent volume of distribution (V/F) was calculated by dividing Cl/F by λz. If the percent AUC extrapolated was >20% or the r^2 of λz was <0.85, the AUCINF, Cl/F, T1/2 and V/F were not reported.
# The Method of Bailer was used to estimate the variance of AUC given the calculated variance of the mean concentration at each time point ([23]). A pairwise comparison utilizing Z test was used to determine whether there was a significant difference between ART631 exposures as expressed by AUClast ([24]). In all cases, p < 0.05 was considered statistically significant.
# as §1
# HL60 = experiment: alamarBlue growth inhibition, HL60; format: cell-based; conditions: Homo sapiens, HL-60, HL60, 48h, mean of 2 independent assays ± SD
# Protocol: (§2) Cytotoxicity was assessed using alamarBlue assays (Life Technologies, Grand Island, NY) following manufacturer’s guidelines. Cell death was verified by Annexin V/7-aminoactinomycin D (7AAD) staining (BioLegend, San Diego, CA) per manufacturer’s guidelines.
# 10 human AML cell lines = experiment: alamarBlue growth inhibition, panel of 10 human AML cell lines; format: cell-based
# Protocol: as §2
# Cell lines with adverse risk cytogenetic and molecular features, e.g. MLL rearrangements (ML2, MOLM14, MV4;11, THP1), FLT3-ITD (MOLM14, MV4;11), TP53 mutations (KG1a, ML2, THP1, U937), and NRAS/KRAS mutations (ML2, THP1), were among those exquisitely sensitive to ART631, with IC50s < 50 nM. The K562 cell line was the only exception, as it was resistant to all 3 of these ARTs. Based on this in vitro activity data combined with the drug stability data described below, ART631 was prioritized over ART576 for further in vitro and in vivo antileukemic efficacy experiments here ( Table 2 ).
# [3] = 15 mg/kg/day, NRG mice plasma, 15 mg/kg/d PO qd x 5 alone, after 5th dose
# [4] = NRG mice plasma, 15 mg/kg/d PO qd x 5 in SAV (SOR 30 mg/kg/d, VEN 150 mg/kg/d), after 5th dose
# [5] = NRG mice plasma, 75 mg/kg PO x 1
structure (smiles),measurement,setting,value
C=CCO/N=C(/C[C@H]1O[C@@H]2O[C@@]3(C)CC[C@H]4[C@H](C)CC[C@@H]([C@H]1C)[C@@]24OO3)[C@H]1O[C@@H]2O[C@@]3(C)CC[C@H]4[C@H](C)CC[C@@H]([C@H]1C)[C@@]24OO3 [ART631],"percentage remaining, Phase I Metabolism HLM NADPH(+)","[1]; 10 µM, 37°C, 1h, with cofactors",60%
same,"percentage remaining, Phase I Metabolism HLM NADPH(-)","[1]; 10 µM, 37°C, 1h, without cofactors",86%
same,degradation in human liver microsomes with co-factors,[1]; NADPH-dependent phase I metabolism,~ 30%
same,half-life,"[2]; NRG, plasma, oral, ART631 alone, single and multiple dose regimens, read-out: half-life",1.1 to 1.7 h
same,AUC(0-t),[2]; [3],2.74 µM·h
same,CL/F,[2]; [3],145 mL/min/kg
same,Cmax,[2]; [3],935 nM
same,Tmax,[2]; [3],2 h
same,half-life,"[2]; 15 mg/kg/day, NRG mice plasma, 15 mg/kg/d PO qd x 5 alone, after 5th dose, read-out: T1/2 (converted)",1.7 h
same,Vd/F,[2]; [3],21.5 L/kg
same,AUC(0-t),[2]; [4],3.73 µM·h
same,CL/F,[2]; [4],102 mL/min/kg
same,Cmax,[2]; [4],719 nM
same,Tmax,[2]; [4],2 h
same,half-life,"[2]; NRG mice plasma, 15 mg/kg/d PO qd x 5 in SAV (SOR 30 mg/kg/d, VEN 150 mg/kg/d), after 5th dose, read-out: T1/2 (converted)",2.4 h
same,Vd/F,[2]; [4],21.3 L/kg
same,AUC(0-t),[2]; [5],22.9 µM·h
same,CL/F,[2]; [5],86.7 mL/min/kg
same,Cmax,[2]; [5],13100 nM
same,Tmax,[2]; [5],1.5 h
same,half-life,"[2]; NRG mice plasma, 75 mg/kg PO x 1, read-out: T1/2 (converted)",1.1 h
same,Vd/F,[2]; [5],8.4 L/kg
same,IC50,HL60,41 ± 9 nM
same,IC50,"10 human AML cell lines; Homo sapiens, ML2, MOLM14, MV4;11, THP1, KG1a, U937, read-out: IC50s in cell lines with adverse risk cytogenetic and molecular features",< 50 nM
same,number of human AML cell lines whose growth was inhibited,10 human AML cell lines; of 10 human AML cell lines tested,9
same,IC50,"10 human AML cell lines; range over the inhibited cell lines of 10 human AML cell lines, read-out: IC50 range",20 to 45 nM
